Measurements reported in US20110311613A1, “TOPICAL FORMULATIONS OF FLAP INHIBITORS FOR THE TREATMENT OF DERMATOLOGICAL CONDITIONS” (AMIRA PHARMACEUTICAL, INC., priority 2008, published 2011).
Read-outs that look alike come from different tables or passages of the source.

Tests used:
[1] = Solubility in topical formulation (75% propylene glycol, 15% transcutol, 10% water); type: physicochemical; details: aqueous with cosolvent or surfactant or cyclodextrin, solution of 75% propylene glycol, read-out: soluble in topical formulation
Procedure: In one aspect, a topical formulation of a FLAP inhibitor compound is prepared by mixing a FLAP inhibitor compound with propylene glycol, transcutol and water. In one aspect, the topical formulation includes a FLAP inhibitor compound (10 mg/mL) in a solution of 75% propylene glycol, 15% transcutol, 10% water.
Using this formulation, the following FLAP inhibitor compounds are all soluble at 10 mg/mL: Compound A (Na salt), Compound B (Na salt), Compound C (acid and Na salt), Compound F (Na salt), Compound G (Na salt), Compound I (acid), and Compound J (Na salt).

[2] = tested on: Male Sprague Dawley Rats; assay: Rat abraded skin model, acute irritancy (Draize scoring) following dermal administration; type: in vivo; details: 2 mL of 10 mg/mL solution on abraded skin, occluded 24 hours; erythema, edema scored at 24, 48 and 72 hours; each animal
Procedure: (§1) Male Sprague Dawley Rats (n=3 per group) were shaved on the back such that approximately 20% of the body area surface was exposed. The shaved skin was mildly abraded then 2 mL of a 10 mg/mL solution of the test compound in a formulation containing 75% propylene glycol, 15% transcutol, 10% water was applied to the abraded skin. The site of administration was occluded for 24 hours after which time the skin was cleansed of excess material (if any). Plasma samples were drawn from each rat at 2, 4, 24 and 72 hours.
Visual analysis of erythema, edema or other dermal findings were recorded prior to dosing then at 24, 48 and 72 hours. Scoring followed a Draize protocol.

[3] = Rat abraded skin model, skin penetration (plasma levels) following dermal administration; type: in vivo; details: for plasma levels (PK analysis): abraded skin, samples at 2, 4, 24 and 72 hours; for concentration at 24 h: male, Sprague Dawley, plasma, topical, 20 mg, 2 mL of 10 mg/mL solution on abraded skin, occluded 24 hours, read-out: plasma levels at the 24 hour time point
Procedure: as §1

[4] = mouse, in vivo, 10 mg/kg
Procedure: (§5) BALB/c mice were divided into groups and acclimatized in cages for 24 hours (day 0). The control group was exposed to air and the test group was exposed to smoke from seven unfiltered cigarettes per day for 8 days (day 1 to day 8). […] On day 14, bronchioalveolar lavage fluid (BALF) is tested for influx of cells, cytokines, chemokines (e.g., KC, IL-17, MIP-2, IL-6), mucin, and/or proteins. Lung histology is also examined.

[5] = tested on: arachidonic acid-induced ear inflammation; assay: Mouse arachidonic acid-induced ear inflammation model, ear inflammation (ear punch weight); type: in vivo
Procedure: (§2) A mouse arachidonic acid (AA)—induced ear inflammation model was utilized to determine the extent of inhibition of ear swelling and leukotriene (LT) production by oral and topical application of a 5-lipoxygenase-activating protein (FLAP) inhibitor. Methods were adapted from Byrum et al., J Exp Med. 1997 Mar. 17; 185(6):1065-75).
(§3) Female CD-1 mice (weighing 18-20 grams) were administered compound orally (30 mg/kg in 10 ml/kg of 0.5% methylcellulose vehicle) or topically at concentrations of 0.01-10% by weight to the experimental ear and vehicle was applied to the opposite control ear. Four hours following compound administration a […] aliquot of a 4 mg/ml solution of AA in ethanol was applied to the experimental (right) ear and vehicle (ethanol) was applied to the control (left) ear. Thirty minutes later mice were placed into an enclosed Plexiglas chamber and exposed to CO2 for a period of 1-2 minutes or until breathing ceased. Ear biopsies were then taken for assessment of inflammation and leukotriene levels.
An eight mm ear punch was taken from a similar location of each experimental ear and each control ear and weighed. The extent of inflammation was determined by the difference in weight between the experimental ear and control ear [experimental ear (mg)-control ear (mg)]. A typical response for this assay is in the range of 4 and 12 mg increase in weight. Ear punches were then frozen for later assessment of leukotrienes.

[6] = tested on: cysteinyl leukotriene (CysLT); assay: Mouse arachidonic acid-induced ear inflammation model, leukotriene analysis (EIA) of CysLT; type: in vivo
Procedure: as §2, §3
(§4) The ear punch was placed into a tris buffer containing 0.01% triton x and homogenized using a polytron probe homogenizer. The sample was then centrifuged at 10,000×g for 10 minutes at 4° C. Leukotriene B4 (LTB4) and cysteinyl leukotriene (CysLT) concentrations in the supernatant were determined by enzyme-immunoassay (EIA).

[7] = tested on: Leukotriene B4 (LTB4); assay: Mouse arachidonic acid-induced ear inflammation model, leukotriene analysis (EIA) of LTB4; type: in vivo
Procedure: as §2, §3, §4

[8] = Trough plasma concentration in subchronic smoking mouse model; details: BALB/c mice, combination DP2 receptor antagonist + FLAP inhibitor
Procedure: as §5

Compound	solubility [1]	Draize score [2]	plasma levels (PK analysis) [3]	concentration at 24 h [3]	other results
COc1cnc(-c2ccc(Cn3c(CC(C)(C)C(=O)O)c(SC(C)(C)C)c4cc(OC[C@@H]5Cc6ccccc6N5C(C)=O)ccc43)cc2)nc1 [Compound C, 3-{5-((S)-1-Acetyl-2,3-dihydro-1H-indol-2-ylmethoxy)-3-tert-butylsulfanyl-1-[4-(5-methoxy-pyrimidin-2-yl)-benzyl]-1H-indol-2-yl}-2,2-dimethyl-propionic acid]	≥ 10000 µg/mL	0	measurable plasma levels	< 110 ng/mL	–
CC(C)(C)Sc1c(CC(C)(C)C(=O)O)n(Cc2ccc(-c3ccc(F)cn3)cc2)c2ccc(OCc3ccccn3)cc12 [Compound J, 3-[3-tert-butylsulfanyl-1-[4-(5-fluoro-pyridin-2-yl)-benzyl]-5-(pyridin-2-ylmethoxy)-1H-indol-2-yl]-2,2-dimethyl-propionic acid]	≥ 10000 µg/mL	0	measurable plasma levels	< 110 ng/mL	–
CC(=O)N1CCC[C@H]1COc1ccc2c(c1)c(SC(C)(C)C)c(CC(C)(C)C(=O)O)n2Cc1ccc(Cl)cc1 [Compound I, 3-[5-((S)-1-Acetyl-pyrrolidin-2-ylmethoxy)-3-tert-butylsulfanyl-1-(4-chloro-benzyl)-1H-indol-2-yl]-2,2-dimethyl-propionic acid]	≥ 10000 µg/mL	0	measurable plasma levels	< 110 ng/mL	–
CCC(CC)(Cc1c(SC(C)(C)C)c2cc(OCc3ccc(C)cn3)ccc2n1Cc1ccc(-c2ncc(OC)cn2)cc1)C(=O)O [Compound G, 2-[3-tert-Butylsulfanyl-1-[4-(5-methoxy-pyrimidin-2-yl)-benzyl]-5-(5-methyl-pyridin-2-ylmethoxy)-1H-indol-2-ylmethyl]-2-ethyl-butyric acid]	≥ 10000 µg/mL	0	measurable plasma levels	< 110 ng/mL	–
CC(C)(C)Sc1c(CC(C)(C)C(=O)O)n(Cc2ccc(-c3ccc(F)cn3)cc2)c2ccc(OCc3ccc4ccccc4n3)cc12 [Compound F, 3-[3-tert-Butylsulfanyl-1-[4-(5-fluoro-pyridin-2-yl)-benzyl]-5-(quinolin-2-ylmethoxy)-1H-indol-2-yl]-2,2-dimethyl-propionic acid]	≥ 10000 µg/mL	0	measurable plasma levels	< 110 ng/mL	–
CCN(Cc1cc(C(F)(F)F)ccc1-c1cncc(CC(=O)O)c1)C(=O)OCc1ccccc1 [DP2 receptor antagonist]	–	–	–	–	Plasma concentration @ trough [4]: <10 nM
COc1cnc(-c2ccc(Cn3c(CC(C)(C)C(=O)O)c(SC(C)(C)C)c4cc(OCc5ccc(C)cn5)ccc43)cc2)nc1 [Compound A, 3-[3-tert-Butylsulfanyl-1-[4-(5-methoxy-pyrimidin-2-yl)-benzyl]-5-(5-methyl-pyridin-2-ylmethoxy)-1H-indol-2-yl]-2,2-dimethyl-propionic acid]	≥ 10000 µg/mL	0	measurable plasma levels	< 110 ng/mL	reduction of inflammation by measure of change in ear weight ([5]; applied dermally 4 hours prior to AA treatment (FIG. 3A)): about 60%; reduction of inflammation by measure of change in ear weight ([5]; oral, 30 mg/kg, 4 hours prior to AA treatment (FIG. 2A)): about 65%; topical concentration of maximal activity ([5]; topical concentrations of 0.01-10%, all three endpoints (ear weight, LTB4, CysLT)): 0.1%; reduction of CysLT levels ([6]; applied dermally 4 hours prior to AA treatment (FIG. 3C)): about 37%; reduction of CysLT levels ([6]; oral, 30 mg/kg, 4 hours prior to AA treatment (FIG. 2C)): about 57%; reduction of LTB4 levels ([7]; applied dermally 4 hours prior to AA treatment (FIG. 3B)): about 55%; reduction of LTB4 levels ([7]; oral, 30 mg/kg, 4 hours prior to AA treatment (FIG. 2B)): about 33%
COc1ccc(-c2ccc(Cn3c(CC(C)(C)C(=O)O)c(SC(C)(C)C)c4cc(OCc5ccc(C)cn5)ccc43)cc2)cn1 [FLAP inhibitor, 3-(3-(tert-butylthio)-1-(4-(6-methoxypyridin-3-yl)benzyl)-5-((5-methylpyridin-2-yl)methoxy)-1H-indol-2-yl)-2,2-dimethylpropanoic acid]	–	–	–	–	Plasma concentration @ trough [8]: 136 (FLAP inhibitor) nM
COc1cnc(-c2ccc(Cn3c(CC(C)(C)C(=O)O)c(SC(C)(C)C)c4cc(OCc5cnc(C)cn5)ccc43)cc2)nc1 [Compound B, 3-[3-tert-Butylsulfanyl-1-[4-(5-methoxy-pyrimidin-2-yl)-benzyl]-5-(5-methyl-pyrazin-2-ylmethoxy)-1H-indol-2-yl]-2,2-dimethyl-propionic acid]	≥ 10000 µg/mL	0	measurable plasma levels	< 110 ng/mL	–
